# Target: EBI2 (Homo sapiens, UniProt P32249)
# Experiment: Cell-based luminescent assay (EBI2 modulation)
# Settings: cell-based luminescence; 7a,25-OHC final assay concentration 80 nM; 60 minutes incubation; read-out: IC50
# How it was run: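 Cells plated overnight at 37° C, then exposed to compound at 4-5 uM final with 80 nM 7a,25-OHC agonist for 60 min at 37° C. Luminescence read after 60 min detection at 25° C in the dark; values normalized to neutral and stimulator controls and plate-pattern corrected.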
# EBI2, sequence (P32249 whole entry): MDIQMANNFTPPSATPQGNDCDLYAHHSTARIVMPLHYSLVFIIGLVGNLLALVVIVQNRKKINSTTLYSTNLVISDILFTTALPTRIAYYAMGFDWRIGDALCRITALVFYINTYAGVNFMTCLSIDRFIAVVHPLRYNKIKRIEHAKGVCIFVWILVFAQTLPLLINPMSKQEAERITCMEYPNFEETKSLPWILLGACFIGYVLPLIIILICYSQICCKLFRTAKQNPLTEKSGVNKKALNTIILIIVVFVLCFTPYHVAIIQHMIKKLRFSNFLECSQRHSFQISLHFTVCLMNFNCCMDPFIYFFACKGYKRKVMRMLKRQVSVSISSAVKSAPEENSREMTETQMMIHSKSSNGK
row,Substance,IC50 [µM]
1,(2E)-1-{4-[(2-methylphenyl)methyl]piperazinyl}-3-phenylprop-2-en-1-one [Compound C394],0.1 to 0.5
2,(2E)-1-{4-[(3-nitrophenyl)methyl]piperazinyl}-3-phenylprop-2-en-1-one [Compound C387],< 0.1
3,(2E)-1-{4-[(4-bromophenyl)sulfonyl]piperazinyl}-3-(4-chloro-2-fluorophenyl)prop-2-en-1-one [Compound C388],< 0.1
4,(2E)-3-(4-bromophenyl)-1-(4-heptanoylpiperazinyl)prop-2-en-1-one [Compound C80],< 0.1
5,(2E)-3-(4-bromophenyl)-1-[4-({[(4-chlorophenyl)methyl]amino}methyl)piperidyl]prop-2-en-1-one [Compound C74],< 0.1
6,(2E)-3-(4-bromophenyl)-1-[4-({[(4-fluorophenyl)methyl]amino}methyl)piperidyl]prop-2-en-1-one [Compound C47],< 0.1
7,(2E)-3-(4-bromophenyl)-1-{4-[({[3-fluoro-4-(trifluoromethyl)phenyl]methyl}amino)methyl]piperidyl} prop-2-en-1-one [Compound C121],< 0.1
8,(2E)-3-(4-ethoxyphenyl)-1-[4-(phenylsulfonyl)piperazinyl]prop-2-en-1-one [Compound C313],< 0.1
9,(2E)-3-(4-fluorophenyl)-1-[4-(naphthylsulfonyl)piperazinyl]prop-2-en-1-one [Compound C345],< 0.1
10,(2E)-3-phenyl-1-[4-(4-pyridylmethyl)piperazinyl]prop-2-en-1-one [Compound C466],0.1 to 0.5
11,(2E)-3-phenyl-1-[4-benzylpiperazinyl]prop-2-en-1-one [Compound C337],< 0.1
12,(2E)-3-phenyl-1-piperazinylprop-2-en-1-one [Compound C444],0.1 to 0.5
13,N-(4-bromophenyl){4-[(5-chloroindol-2-yl)carbonyl]piperazinyl}carboxamide [Compound C445],0.1 to 0.5
14,benzo[d]furan-2-yl 4-(phenylethyl)piperazinyl ketone [Compound C405],0.1 to 0.5
15,piperazinyl 5-nitroindol-2-yl ketone [Compound C134],< 0.1
16,tert-butyl 4-(indol-2-ylcarbonyl)piperazinecarboxylate [Compound C414],0.1 to 0.5
17,{1-[(5-chloroindol-2-yl)carbonyl](4-piperidyl)}(4-chlorophenyl) [Compound C462],0.1 to 0.5

# Other lines, results leading:
row,IC50 [µM],Substance
1,< 0.1,(2E)-1-[4-(diphenylmethyl)piperazinyl]-3-(4-bromo-2-fluorophenyl)prop-2-en-1-one [Compound C24]
2,< 0.1,(2E)-1-[4-(diphenylmethyl)piperazinyl]-3-(4-bromophenyl)prop-2-en-1-one [Compound C27]
3,< 0.1,"(2E)-1-[4-({[(3,5-difluorophenyl)methyl]amino}methyl)piperidyl]-3-(4-bromophenyl)prop-2-en-1-one [Compound C54]"
4,< 0.1,(2E)-1-{4-[2-(2-fluorophenyl)ethyl]piperazinyl}-3-phenylprop-2-en-1-one [Compound C361]
5,< 0.1,"(2E)-1-{4-[(2,4-difluorophenyl)carbonyl]piperazinyl}-3-(4-bromophenyl)prop-2-en-1-one [Compound C46]"
6,< 0.1,"(2E)-1-{4-[(2,5-difluorophenyl)methyl]piperazinyl}-3-phenylprop-2-en-1-one [Compound C350]"
7,< 0.1,"(2E)-1-{4-[(2,5-dimethoxyphenyl)sulfonyl]piperazinyl}-3-(4-fluorophenyl)prop-2-en-1-one [Compound C318]"
8,< 0.1,"(2E)-1-{4-[(3,5-dimethylphenyl)methyl]piperazinyl}-3-phenylprop-2-en-1-one [Compound C340]"
9,< 0.1,(2E)-1-{4-[(3-methoxyphenyl)methyl]piperazinyl}-3-phenylprop-2-en-1-one [Compound C379]

# — patent US9776979B2, “EBI2 modulators” (Sanford-Burnham Medical Research Institute, priority 2013, dated 2017)
